Legend:
[1] = test system: HepG2 cells; assay: Cell vitality (ATP lite kit); type: cell-based, human; settings: for Vitality %): [conc.]final 1.0 mM, HepG2, 72-hour (3x24 hr) treatment, control = 100
Procedure: In order to analyse the effects of the solution of the invention, alpha lipoic acid contained therein was digested in artificial gastric juice and subsequently administered in the culture medium at the final concentration of 0.5 or 1mM. The cell vitality effects recorded were compared with those achieved in a parallel control experiment wherein alpha lipoic acid dissolved in a solvent of election for cell studies, i.e. DMSO (but not digested in gastric juice) was used. […]

[2] = test system: SK-N-SH cell cultures; assay: ROS induced from H2O2 in cell cultures; type: cell-based, human; settings: for Ros (% compared to ctrl) 24h: 24h pre-treatment, then 2 hours 1.5mM mM H2O2; for Ros (% compared to ctrl) 48h: 48h pre-treatment, then H2O2
Procedure: Another important function ascribable to lipoic acid is that of contrasting the formation of reactive species of oxygen induced from H2O2. […] A further aim was to verify whether R-alpha lipoic acid retained this function also in an aqueous solution. For this reason, increasing doses of the same, coming from the above-used solution of the invention and subjected to digestion in artificial gastric juice, were added to the culture medium for different intervals of time (24 hr and 48 hr) before inducing an oxidative stress with H2O2. The same reaction was performed as a control, by using the R-alphaLA prepared in DMSO, but dissolved directly in medium to obtain the same working concentrations.
In Table 10, the values of ROS are reported as % with respect to those observed in the controls after 24 hours of maintenance in the culture and 2 hours of treatment with 1.5mM mM H2O2. In the first box of the Table, the results are shown as obtained after administration of R-alphaLA prepared in DMSO and then diluted directly in the medium to obtain the reference final concentrations; in the second box, on the other hand, R-alphaLA was first dissolved in the solution of the invention, subsequently digested in gastric juice and finally diluted in the medium. As summarised in Table 10, in each case, a dose-dependent response of alpha lipoic acid in preventing the formation of the ROS was observed over the first 24 hours.

[3] = test system: HepG2 cells; assay: Glucose in the medium, insulin-resistant diabetes cellular model (Glucose assay kit); type: cell-based, human; settings: 1 mM for 48 hr; HepG2 in medium enriched with glucose 30mM; reference control = 100%
Procedure: Lastly, the hypoglycaemia-inducing action of the lipoic acid formulated in aqueous solution of the invention was also evaluated, by utilising an insulin-resistant diabetes cellular model. HepG2 cells cultivated in a medium enriched with glucose and free of insulin mimicked certain conditions present in the hepatocytes of diabetic patients; in addition, certain functions of the culture medium, considered as a container of nutritional substances and an accumulation container for those substances excreted, could be compared to plasma circulation. […]
Table 11 reports some of the most significant results achieved by using the Sigma Aldrich Glucose assay kit to determine the glucose; more specifically, the values obtained from the culture medium following administration for 48 hr of lipoic acid (1mM) prepared in DMSO or formulated in aqueous solution at 30 % of propylene glycol, in accordance with the present invention. The most significant decrease in glucose was in fact observed with the R-enantiomer of alpha lipoic acid in the solution of the invention.

[4] = humans, oral route, 600 mg, various formulations; cited from earlier work

Structure (SMILES) | Vitality %) [1] [%] | cell vitality values compared to the control ([1]; 1mM, 48-hr treatment, dissolved in DMSO, HepG2, previous tests) | Ros (% compared to ctrl) 24h ([2]; 100µM) [%] | Ros (% compared to ctrl) 48h ([2]; 100µM) [%] | Ros (% compared to ctrl) 24h ([2]; 200µM) [%] | Ros (% compared to ctrl) 48h ([2]; 200µM) [%] | Glucose in the medium (%) [3] [%] | bioavailability [4]
O=C(O)CCCCC1CCSS1 (racemic) [(RS) alphaLA (in DMSO), alpha lipoic acid] | 35.48 | – | – | – | – | – | – | –
O=C(O)CCCC[C@@H]1CCSS1 [(R) alphaLA (in DMSO), alpha-R-lipoic acid] | 40.33 | halved | 77.87 | 99.26 | 49.18 | 103.98 | 89 | –
O=C(O)CCCCC1CCSS1 (stereo not drawn) [lipoic acid, 1,2-dithiolane-3-pentanoic acid] | – | – | – | – | – | – | – | less than 30%
